Some test systems named below: HS 578T breast; SNB-75 CNS; OVCAR-4 ovarian; COLO 205 colon; CCRF-CEM leukemia; SF-539 CNS; MCF7 breast; MOLT-4 leukemia; HCC-2998 colon; SK-MEL-2 melanoma; HCT-15 colon; RXF 393 renal; HT29 colon; SK-MEL-5 melanoma; SW-620 colon; MDA-MB-435; T-47D breast; A549 NSCLC; M14 melanoma; U251 CNS; SR leukemia; RPMI-8226 leukemia; ACHN renal; UACC-257 melanoma; MALME-3M melanoma; NCI-H23 lung; SF-268 CNS; OVCAR-3 ovarian; SNB-19 CNS; NCI/ADR-RES ovarian; TK-10 renal; MDA-MB-231 breast; UO-31 renal; CAKI-1 renal; KM12 colon; SK-MEL-28 melanoma; A498 renal; IGROV1 ovarian; EKVX NSCLC; NCI-H460 lung; DU-145 prostate; SF-295 CNS; OVCAR-5 ovarian; K-562 leukemia; SN12C renal; NCI-H522 lung; NCI-H226 lung; OVCAR-8 ovarian; LOX IMVI melanoma; HCT-116 colon; HL-60(TB) leukemia; HOP-62 NSCLC; UACC-62 melanoma; 786-0 renal.

Holding throughout (experiment): NCI tumour cell line growth inhibition, 48 h

Converted amounts (≈) assume the structure as drawn.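 Cells were grown in 96-well plates and exposed to each compound for 48 hours at five concentrations; endpoints were interpolated linearly between bracketing concentrations, or set to the highest concentration if not reached. Here, GI50 denotes the concentration required for 50% inhibition of growth. Definition used: TGI = concentration required for complete inhibition of growth.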

On to `COc1cc(CC2C(=O)NC(=O)NC2=O)ccc1OCc1ccccc1`, for which the results for the GI50 in the experiment with HS 578T breast, with SNB-75 CNS and in the experiment with OVCAR-4 ovarian were 91.3 µg/mL (≈ 258 µM), 38 µg/mL (≈ 107 µM) and 59.8 µg/mL (≈ 169 µM), respectively.

On to `O=[n+]1c2ccccc2n([O-])c2cc(Br)ccc21`, for which the TGI in the experiment with COLO 205 colon was 57.2 µM; with CCRF-CEM leukemia it was above 100 µM; in the experiment with SF-539 CNS, 37.5 µM; with MCF7 breast, 53 µM; in the experiment with MOLT-4 leukemia it was 2.19 µM; in the experiment on HCC-2998 colon, 39.9 µM. In addition, the TGI in the experiment on SK-MEL-2 melanoma came out at 56.8 µM; with HCT-15 colon, 32 µM; with RXF 393 renal it was 41.1 µM; with HT29 colon it was 39.1 µM; with SK-MEL-5 melanoma, 39.5 µM; with SW-620 colon it was 75.7 µM. Also, the TGI was 36.5 µM with MDA-MB-435; 45.9 µM in the experiment on T-47D breast; 39.4 µM with A549 NSCLC; above 100 µM in the experiment on M14 melanoma; 78.8 µM with U251 CNS; 5.21 µM with SR leukemia. For the same compound, the TGI in the experiment with RPMI-8226 leukemia was 61.4 µM; in the experiment on ACHN renal, 17.4 µM; in the experiment with UACC-257 melanoma, 34.9 µM; with MALME-3M melanoma it was 39.7 µM; in the experiment on NCI-H23 lung it was 49.6 µM; in the experiment with SF-268 CNS it was 55.3 µM. In addition, the TGI in the experiment with HS 578T breast was above 100 µM; in the experiment with OVCAR-3 ovarian, 9.04 µM; with SNB-19 CNS, above 100 µM; in the experiment with NCI/ADR-RES ovarian, 68.9 µM; in the experiment with TK-10 renal, 72.9 µM; with MDA-MB-231 breast it was above 100 µM. For the same compound, the TGI in the experiment on UO-31 renal is 28.1 µM; with CAKI-1 renal it was 17.2 µM; in the experiment with KM12 colon, 30.9 µM; with SK-MEL-28 melanoma, above 100 µM; in the experiment with A498 renal, 40.2 µM; in the experiment on IGROV1 ovarian, 18.8 µM. Further, the TGI was 49.9 µM in the experiment on EKVX NSCLC; above 100 µM in the experiment on NCI-H460 lung; 77.7 µM in the experiment on SNB-75 CNS; 98.9 µM in the experiment on DU-145 prostate; 46.4 µM in the experiment with SF-295 CNS; above 100 µM in the experiment with OVCAR-5 ovarian. Besides, the TGI in the experiment on K-562 leukemia was 33.4 µM; with SN12C renal it was 42.3 µM; in the experiment with NCI-H522 lung, 30.2 µM; in the experiment on NCI-H226 lung it was 48.5 µM; with OVCAR-8 ovarian, 47.9 µM; in the experiment with LOX IMVI melanoma it was 13.6 µM. Also, the TGI in the experiment on OVCAR-4 ovarian was 45.2 µM; in the experiment on HCT-116 colon, above 100 µM; in the experiment on HL-60(TB) leukemia it was 7.56 µM; in the experiment on HOP-62 NSCLC it was above 100 µM; in the experiment with UACC-62 melanoma, 55.6 µM; in the experiment on 786-0 renal, above 100 µM.

On to `Nc1ncnc2c1ncn2CC(CO)CC(c1ccccc1)P(=O)(O)O` (stereo not drawn), for which, in the experiment with M14 melanoma, the TGI stood at 1.64 µM.

Values taken from PubChem BioAssay (NCI).
